Source: ChEMBL document CHEMBL5226288, “A perspective on medicinal chemistry approaches towards adenomatous polyposis coli and Wnt signal based colorectal cancer inhibitors” (Eur J Med Chem, 2021)
In brackets after ≈: the same amount, converted by molar mass. Non-standard residues stand in square brackets, D forms with d. Residues, ends and D or L forms follow the SMILES beside them. Hica(2S) = CC(C)C[C@H](O)C(=O)O; NMeV = CN[C@H](C(=O)O)C(C)C; NMeA = CN[C@@H](C)C(=O)O; βAla = NCCC(=O)O

Tests used:
SW480 [1] = test: Anticancer activity against human SW480 cells assessed as reduction in cell viability incubated for 72 hrs; format: functional, cell-based; details: SW480, 72 h
HCT-116 [2] = test: Anticancer activity against human HCT-116 cells assessed as reduction in cell viability incubated for 72 hrs; format: functional, cell-based; details: HCT-116, 72 h
SW480 [3] = test: Anticancer activity against human SW480 cells assessed as reduction in cell viability incubated for 72 hrs by MTT assay; format: functional, cell-based; details: SW480, 72 h
[4] = Inhibition of Wnt signalling in human HEK293T cells expressing Topflash and renilla luciferase reporter gene incubated for 24 hrs by Dual-luciferase assay; format: cell-based; details: HEK-293T
SW480 [5] = test: Anticancer activity against human SW480 cells assessed as reduction in cell viability incubated for 24 hrs by MTT assay; format: functional, cell-based; details: SW480, 24 h
LoVo [6] = test: Anticancer activity against human LoVo cells assessed as reduction in cell viability incubated for 24 hrs by MTT assay; format: functional, cell-based
HCT-116 [7] = test: Antiproliferative activity against human HCT-116 cells assessed as reduction in cell viability incubated for 72 hrs by MTS assay; format: functional, cell-based; details: HCT-116, 72 h
DLD-1 = test: Antiproliferative activity against human DLD-1 cells assessed as reduction in cell viability by WST assay; format: functional, cell-based
CBP/beta catenin = CBP/beta catenin (Homo sapiens, UniProt P35222+Q92793); test: Antagonist activity at CBP/beta-catenin (unknown origin) protein-protein interaction; format: protein assay
Chain of CBP/beta catenin (Q92793 whole entry): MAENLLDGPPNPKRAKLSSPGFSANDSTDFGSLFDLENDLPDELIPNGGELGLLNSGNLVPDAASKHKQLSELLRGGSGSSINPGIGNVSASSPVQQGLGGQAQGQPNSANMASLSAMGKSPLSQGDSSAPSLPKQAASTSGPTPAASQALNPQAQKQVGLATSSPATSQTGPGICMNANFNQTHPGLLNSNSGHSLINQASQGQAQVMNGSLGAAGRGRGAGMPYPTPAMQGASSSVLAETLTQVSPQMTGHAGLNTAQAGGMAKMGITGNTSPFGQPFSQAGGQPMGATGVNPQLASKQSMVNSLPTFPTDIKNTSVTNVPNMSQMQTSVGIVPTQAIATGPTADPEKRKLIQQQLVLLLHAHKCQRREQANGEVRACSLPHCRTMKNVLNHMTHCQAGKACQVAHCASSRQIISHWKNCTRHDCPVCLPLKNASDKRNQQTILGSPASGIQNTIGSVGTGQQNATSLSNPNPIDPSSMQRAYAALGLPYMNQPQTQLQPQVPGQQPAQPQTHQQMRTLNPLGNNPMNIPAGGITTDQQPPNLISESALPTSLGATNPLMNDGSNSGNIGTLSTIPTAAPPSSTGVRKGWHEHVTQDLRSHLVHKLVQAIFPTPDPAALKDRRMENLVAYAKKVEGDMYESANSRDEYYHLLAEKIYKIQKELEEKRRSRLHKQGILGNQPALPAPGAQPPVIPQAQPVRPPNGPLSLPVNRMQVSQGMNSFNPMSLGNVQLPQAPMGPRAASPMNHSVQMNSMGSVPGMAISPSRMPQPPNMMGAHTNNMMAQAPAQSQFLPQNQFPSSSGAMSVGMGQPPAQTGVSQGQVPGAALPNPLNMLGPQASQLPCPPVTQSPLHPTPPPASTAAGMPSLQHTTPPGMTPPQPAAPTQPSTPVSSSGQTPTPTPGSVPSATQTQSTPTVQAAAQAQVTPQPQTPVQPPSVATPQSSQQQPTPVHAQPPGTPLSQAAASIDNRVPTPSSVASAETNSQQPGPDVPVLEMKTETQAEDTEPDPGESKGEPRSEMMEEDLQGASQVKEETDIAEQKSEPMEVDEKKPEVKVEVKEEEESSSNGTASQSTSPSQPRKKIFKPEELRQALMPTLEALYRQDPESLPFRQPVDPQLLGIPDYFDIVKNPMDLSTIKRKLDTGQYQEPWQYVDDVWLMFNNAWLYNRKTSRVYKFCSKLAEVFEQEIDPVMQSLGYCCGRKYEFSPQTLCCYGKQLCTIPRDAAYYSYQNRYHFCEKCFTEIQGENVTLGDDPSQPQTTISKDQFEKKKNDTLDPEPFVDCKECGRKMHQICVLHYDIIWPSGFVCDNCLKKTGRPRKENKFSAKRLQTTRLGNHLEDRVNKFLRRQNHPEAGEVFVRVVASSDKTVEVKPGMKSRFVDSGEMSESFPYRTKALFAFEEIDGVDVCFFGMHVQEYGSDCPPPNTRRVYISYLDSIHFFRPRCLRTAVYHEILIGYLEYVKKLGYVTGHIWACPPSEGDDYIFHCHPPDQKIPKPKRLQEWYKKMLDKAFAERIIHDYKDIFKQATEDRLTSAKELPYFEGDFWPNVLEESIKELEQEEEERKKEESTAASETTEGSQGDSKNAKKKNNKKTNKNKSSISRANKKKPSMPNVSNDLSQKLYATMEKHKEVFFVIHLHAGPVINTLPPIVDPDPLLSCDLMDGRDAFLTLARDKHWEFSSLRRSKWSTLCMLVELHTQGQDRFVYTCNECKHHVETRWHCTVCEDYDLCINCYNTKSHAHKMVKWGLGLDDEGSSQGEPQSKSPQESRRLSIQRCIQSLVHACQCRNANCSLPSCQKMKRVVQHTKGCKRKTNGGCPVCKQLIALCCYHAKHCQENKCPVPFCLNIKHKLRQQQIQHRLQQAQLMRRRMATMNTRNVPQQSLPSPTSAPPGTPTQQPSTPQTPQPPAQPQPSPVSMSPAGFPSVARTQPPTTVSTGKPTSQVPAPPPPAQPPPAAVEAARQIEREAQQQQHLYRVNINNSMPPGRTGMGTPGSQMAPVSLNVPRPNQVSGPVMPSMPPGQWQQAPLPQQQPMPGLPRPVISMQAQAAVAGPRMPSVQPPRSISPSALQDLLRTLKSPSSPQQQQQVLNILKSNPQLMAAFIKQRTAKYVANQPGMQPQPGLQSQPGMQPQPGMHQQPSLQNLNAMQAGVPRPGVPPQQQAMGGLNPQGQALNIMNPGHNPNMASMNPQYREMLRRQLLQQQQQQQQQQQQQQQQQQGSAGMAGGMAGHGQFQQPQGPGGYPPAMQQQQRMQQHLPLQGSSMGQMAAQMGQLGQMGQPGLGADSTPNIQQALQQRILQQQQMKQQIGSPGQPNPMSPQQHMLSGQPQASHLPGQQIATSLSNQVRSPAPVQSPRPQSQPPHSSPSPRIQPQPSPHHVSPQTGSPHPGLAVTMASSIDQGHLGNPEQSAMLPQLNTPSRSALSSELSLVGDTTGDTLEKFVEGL
Chain of CBP/beta catenin (P35222 whole entry): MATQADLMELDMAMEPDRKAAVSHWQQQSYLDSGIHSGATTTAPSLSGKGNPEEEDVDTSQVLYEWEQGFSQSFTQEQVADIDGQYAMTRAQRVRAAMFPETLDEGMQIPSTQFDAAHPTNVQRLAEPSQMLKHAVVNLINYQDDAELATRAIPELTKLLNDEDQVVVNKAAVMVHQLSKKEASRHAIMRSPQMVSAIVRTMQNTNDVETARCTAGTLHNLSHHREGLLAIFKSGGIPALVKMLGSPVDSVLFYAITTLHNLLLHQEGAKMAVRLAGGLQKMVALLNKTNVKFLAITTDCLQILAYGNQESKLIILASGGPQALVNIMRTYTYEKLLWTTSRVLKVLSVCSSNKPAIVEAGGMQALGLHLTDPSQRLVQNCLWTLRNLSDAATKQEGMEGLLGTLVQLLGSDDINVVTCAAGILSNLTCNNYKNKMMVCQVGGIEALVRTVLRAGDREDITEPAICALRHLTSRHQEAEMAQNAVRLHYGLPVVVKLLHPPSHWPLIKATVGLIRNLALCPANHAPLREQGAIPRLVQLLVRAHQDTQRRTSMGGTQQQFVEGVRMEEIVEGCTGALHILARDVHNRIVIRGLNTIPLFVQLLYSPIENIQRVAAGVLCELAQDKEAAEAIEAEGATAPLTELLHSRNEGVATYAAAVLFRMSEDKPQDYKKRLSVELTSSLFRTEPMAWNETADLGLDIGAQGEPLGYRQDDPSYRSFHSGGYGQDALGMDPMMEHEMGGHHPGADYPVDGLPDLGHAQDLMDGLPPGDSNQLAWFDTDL

[8] = Inhibition of Wnt1 signalling in human HCT-116 cells expressing ST-Luc and renilla firefly luciferase incubated for 24 hrs by dual-luciferase reporter assay; format: cell-based; details: HCT-116, 24 h
[9] = Inhibition of Wnt1 signalling in human SW480 cells expressing ST-Luc and renilla firefly luciferase incubated for 24 hrs by dual-luciferase reporter assay; format: cell-based; details: SW480, 24 h
SW480 [10] = test: Antiproliferative activity against human SW480 cells expressing firefly and renilla luciferase assessed as reduction in cell growth incubated for 3 hrs by TOPFlash luciferase assay; format: functional, cell-based; details: SW480, 3 h
DNA polymerase beta = DNA polymerase beta (Homo sapiens, UniProt P06746); test: Inhibition of human DNA polymerase beta by fluorescence anisotropy
[11] = biological target: Catenin beta-1/Transcription factor 7 (Homo sapiens, UniProt P35222+P36402); test: Inhibition of human beta-catenin (142 to 686 residues)/human TCF (7 to 51 residues) protein-protein interaction incubated for 3 hrs by fluorescence polarization assay
Chain of Catenin beta-1/Transcription factor 7 (P36402 whole entry, the tested form may be a part): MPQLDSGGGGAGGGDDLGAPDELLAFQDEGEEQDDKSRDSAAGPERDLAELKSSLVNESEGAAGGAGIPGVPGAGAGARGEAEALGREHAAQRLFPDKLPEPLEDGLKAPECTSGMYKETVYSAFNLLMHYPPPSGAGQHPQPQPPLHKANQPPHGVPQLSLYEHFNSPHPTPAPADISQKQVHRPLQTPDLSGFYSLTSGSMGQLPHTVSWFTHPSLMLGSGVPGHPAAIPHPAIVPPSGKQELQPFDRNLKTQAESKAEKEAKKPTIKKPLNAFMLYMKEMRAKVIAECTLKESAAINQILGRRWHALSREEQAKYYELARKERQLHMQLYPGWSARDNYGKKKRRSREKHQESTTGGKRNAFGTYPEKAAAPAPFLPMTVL
Chain of Catenin beta-1/Transcription factor 7 (P35222 whole entry, the tested form may be a part): as the sequence (P35222 whole entry) above

SW480 [12] = test: Anticancer activity against human SW480 cells assessed as cell growth inhibition incubated for 24 hrs by MTS assay; format: functional
SW48 = test: Anticancer activity against human SW48 cells assessed as cell growth inhibition; format: functional, cell-based
[13] = Anticancer activity against human colorectal cancer cell lines assessed as reduction in cell viability incubated for 24 to 72 hrs by MTT assay; format: functional, cell-based
LoVo [14] = test: Antiproliferative activity against human LoVo cells assessed as reduction in cell viability; format: functional, cell-based
HT-29 = test: Antiproliferative activity against human HT-29 cells assessed as reduction in cell viability; format: functional, cell-based
HCT-116 [15] = test: Antiproliferative activity against human HCT-116 cells assessed as reduction in cell proliferation incubated for 72 hrs by CellTiter-Glo assay; format: functional, cell-based; details: HCT-116, 72 h
SW480 [16] = test: Anticancer activity against human SW480 cells assessed as reduction in cell viability incubated for 12 to 24 hrs by MTS assay; format: functional, cell-based
SW-620 = test: Anticancer activity against human SW-620 cells assessed as reduction in cell viability incubated for 24 hrs by CCK-8 assay; format: functional, cell-based; details: SW-620, 24 h
KM12 = test: Anticancer activity against human KM12 cells assessed as reduction in cell viability incubated for 24 hrs by CCK-8 assay; format: functional, cell-based; details: KM12, 24 h
HCT-116 [17] = test: Antiproliferative activity against human HCT-116 cells assessed as reduction in cell proliferation incubated for 12 to 24 hrs by CCK-8 assay; format: functional, cell-based
SW480 [18] = test: Antiproliferative activity against human SW480 cells assessed as reduction in cell proliferation incubated for 12 to 24 hrs by CCK-8 assay; format: functional, cell-based
SW480 [19] = test: Antiproliferative activity against human SW480 cells assessed as reduction in cell viability incubated for 24 hrs by CCK-8 assay; format: functional, cell-based; details: SW480, 24 h
HCT-116 [20] = test: Anticancer activity against human HCT-116 cells assessed as reduction in cell proliferation incubated for 48 hrs by sulforhodamine B assay; format: functional, cell-based; details: HCT-116, 48 h
SW480 [21] = test: Anticancer activity against human SW480 cells assessed as reduction in cell proliferation incubated for 48 hrs by sulforhodamine B assay; format: functional, cell-based; details: SW480, 48 h

## Cc1cc(/C=C/c2ccc3cc(N(C)C)ccc3[n+]2C)c(C)n1-c1ccccc1
SW480 [1]
  EC50: 0.056 µM
HCT-116 [2]
  EC50: 0.043 µM

## C[C@@H]1O[C@H]2O[C@H]3[C@@H](OC[C@H](O)[C@@H]3O)OC(=O)[C@@H]3CC(C)(C)C[C@H]4C5=CC[C@@H]6[C@@]7(C)C[C@H](O)[C@H](O[C@@H]8O[C@H](CO)[C@@H](O)[C@H](O)[C@H]8O[C@@H]8OC[C@H](OC(=O)C[C@](C)(O)CC(=O)O[C@@H]1[C@@H](O[C@@H]1OC[C@@H](O)[C@H](O)[C@H]1O)[C@H]2O)[C@H](O)[C@H]8O)[C@@](C)(CO)[C@@H]7CC[C@@]6(C)[C@]5(C)CCC34
SW480 [3]
  IC50: 40 µM

## CCn1c2ccccc2c2cc(C(=O)OC(C)C)nc(-c3cccc4ccccc34)c21
[4]
  IC50: 2.8 µM

## C[C@@H]1O[C@@H](O[C@H]2[C@H](O[C@H]3[C@H](O[C@H]4CC[C@@]5(C)C6CC=C7[C@@H]8CC(C)(C)CC[C@]8(C(=O)O)CC[C@]7(C)C6(C)CC[C@H]5C4(C)C)OC[C@H](O)[C@@H]3O)O[C@H](CO)[C@@H](O)[C@@H]2O)[C@H](O)[C@H](O)[C@H]1O (stereo partly drawn)
SW480 [5]
  IC50: 1.81 µM
LoVo [6]
  IC50: 1.01 µM

## C=CCN1CC(=O)N2C(CN(Cc3cccc4cn(C)nc34)C[C@@H]2Cc2ccc(OP(=O)(O)O)cc2)N1C(=O)NCc1ccccc1 (stereo partly drawn)
HCT-116 [7]
  IC50: 0.91 µM

## O=C1[C@@H](Cc2ccccc2)N2C(=O)CCN(C(=O)NCc3ccccc3)[C@@H]2CN1Cc1cccc2ccccc12
DLD-1
  IC50: 21.5 µM

## C[C@H]1[C@H]2N(C(=O)CN(C)N2C(=O)NCc2ccccc2)[C@@H](Cc2ccc(OP(=O)(O)O)cc2)C(=O)N1Cc1cccc2cccnc12
CBP/beta catenin
  IC50: 0.15 µM

## CC[C@]12CCCN3CCc4c(n(c5ccccc45)[C@@H](c4ccc(O)c5c4N[C@H]4CC[C@]6(CC)CCCN7CC[C@]54[C@@H]76)C1)C32 (stereo partly drawn)
[8]
  IC50: 4.47 µM
[9]
  IC50: 4.94 µM

## O=C(NCc1ccccc1)N1CCC(=O)N2C1CN(Cc1cccc3ccccc13)C[C@@H]2Cc1ccc(O)cc1 (stereo partly drawn)
SW480 [10]
  IC50: 8.07 µM

## Cc1ccc(Nc2nc(NS(=O)(=O)c3cc(C)c(C)cc3C)n[nH]2)cc1
DNA polymerase beta
  IC50: 5 µM

## Cn1ncc2cc(CCc3nn[nH]n3)ccc21
[11]
  IC50: 3.14 µM

## CN1CC(=O)N2C(CN(Cc3cccc4ccccc34)C[C@@H]2Cc2ccc(O)cc2)N1C(=O)NCc1ccccc1 (stereo partly drawn)
SW480 [12]
  GI50: 0.98 µg/mL (≈ 1.78 µM)

## COc1cc(OC)c2c(c1)O[C@@]1(c3ccc(Br)cc3)[C@H](c3ccccc3)C[C@@H](O)[C@@]21O
SW48
  IC50: 0.01 µM

## C[C@H]1[C@H](OC(=O)CCC(=O)O)O[C@@H]2O[C@@]3(C)CC[C@H]4[C@H](C)CC[C@@H]1[C@@]24OO3 [ARTESUNATE]
[13]
  IC50: 20.3 µM

## COc1cc2c(cc1OC)[C@@]13CCN4CC5=CCO[C@H]6CC(=O)N2[C@H]1[C@H]6[C@H]5C[C@H]43 [BRUCINE]
LoVo [14]
  IC50: 18.2 µM

## Nc1ccc(O)c(C(=O)O)c1 [MESALAMINE]
HT-29
  IC50: 20000 µM

## CC(=O)c1cc2c(o1)C(=O)c1ccccc1C2=O [NAPABUCASIN]
HCT-116 [15]
  IC50: 0.3 µM

## O=C(Nc1ccc([N+](=O)[O-])cc1Cl)c1cc(Cl)ccc1O [NICLOSAMIDE]
SW480 [16]
  IC50: 1 µM

## CO[C@@H]1C[C@@H](C[C@H]2CC[C@H](C)[C@H]([C@@H](C)C(=O)O)O2)O[C@]2(O[C@](C)([C@H]3CC[C@@](C)([C@@H]4O[C@@H]([C@H]5O[C@@](O)(CO)[C@H](C)C[C@@H]5C)C[C@@H]4C)O3)C[C@H]2C)[C@@H]1C [NIGERICIN]
SW-620
  IC50: 1.39 µM
KM12
  IC50: 8.48 µM

## O=c1[nH]c2ccccc2n1C1CCN(CCCC(c2ccc(F)cc2)c2ccc(F)cc2)CC1 [PIMOZIDE]
HCT-116 [17]
  IC50: 10 µM
SW480 [18]
  IC50: 10 µM

## CC(C)[C@]12O[C@H]1[C@@H]1O[C@]13[C@]1(O[C@H]1C[C@H]1C4=C(CC[C@@]13C)C(=O)OC4)[C@@H]2O [TRIPTOLIDE]
SW480 [19]
  IC50: 0.05 µM

## CC[C@H](C)[C@@H]1NC(=O)[C@@H]2CCCN2C(=O)[C@H](CC(C)C)OC(=O)CCNC(=O)[C@H](C)N(C)C(=O)[C@H](C(C)C)N(C)C1=O [destruxin B] (cyclo([Hica(2S)]PI[NMeV][NMeA][βAla]))
HCT-116 [20]
  IC50: 6.3 µM
SW480 [21]
  IC50: 6.25 µM
